Data reported in patent US7235401B2, “Method for determining cell cycle position” (GE Healthcare UK Limited, priority 2001, dated 2007).
Entries after “also recorded” stand apart in the source; their conditions may differ.

Experiments:
[1] = tested on: U20S cells (ATCC HTB-96); assay: Effect of cell cycle blocking agents on GFP fluorescence from cell cycle phase marker using transiently transfected cells; format: cell-based; conditions: U20S cells transiently transfected with cyclin B1 promoter/D-box/CRS-GFP reporter; 24 hours exposure; confocal scanning imager (FIG. 5)
Description: U20S cells (ATCC HTB-96) were cultured in wells of a 96 well microtitre plate. Cells were transfected with a cell cycle reporter construct prepared according to Example 1, comprising a cyclin B1 promoter operably linked to sequences encoding the cyclin B1 D-box, the cyclin B1 CRS, and GFP in a pCORON4004 vector (Amersham Biosciences) using Fugene 6 (Roche) as the transfection agent.
Following 24 hours of culture, cells were exposed to the specific cell cycle blockers mimosine (blocks at G1/S phase boundary) or demecolcine (blocks in M phase). Control cells were exposed to culture media alone.
Cells were incubated for a further 24 hours and then analysed for nuclear GFP expression using a confocal scanning imager with automated image analysis (IN Cell Analysis System, Amersham Biosciences).

[2] = tested on: U2-OS cells; assay: Effect of cell cycle inhibiting drugs on GFP expression levels, FACS analysis of stable EGFP reporter cell line; format: cell-based; conditions: 100 ng/ml demecolcine or 1 mM mimosine for 24 hours (FIG. 9)
Text: The green fluorescent protein reporter sequence in the vector described in example 1 was replaced with enhanced GFP (EGFP; Cormack, B. P. et al, Gene, (1996), 173, 33–38; BD Clontech) by standard methods. The EGFP gene is a brighter form of GFP containing the mutations F64L and S65T. In addition, EGFP contains codons that have been altered to optimise expression in mammalian cells. This new construct was transfected into U2-OS cells and a number of colonies were isolated by selection with geneticin followed by sorting of single cells using a fluorescence activated cell sorter.
The cells were prepared for FACS analysis by standard methods. Briefly the cells were fixed and permeabilised using CytoFix/CytoPerm (Becton Dickinson) according to the manufacturers procedures. The cells were then treated with 50 μg/ml RNAse and 0.4% Triton X-100 and counterstained with 100 μg/ml propidium iodide. The degree of propidium iodide staining is proportional to the amount of DNA in the cell and therefore a measure of the cell cycle phase of the cell. As expected, the degree of red propidium iodide staining and the amount of green GFP fluorescence appear to be proportional in the cells.
The cells prepared in Example 5 were grown in 25 cm^2 flasks and treated with either 100 ng/ml demecolcine (Sigma) or 1 mM mimosine (Sigma) for 24 hours. The cells were then fixed, permeabilised and stained with propidium iodide as described in example 5.

| Compound | nuclear GFP fluorescence compared to control cells [1] | cell cycle phase of arrest (FACS, propidium iodide staining) [2] | relative green fluorescence intensity (FACS, FL1H) [2] | cell cycle phase of arrest (FACS, propidium iodide staining) ([2]; listed as colchicine) | relative green fluorescence intensity (FACS, FL1H) ([2]; listed as colchicine) |
| --- | --- | --- | --- | --- | --- |
| CN[C@H]1CCc2cc(OC)c(OC)c(OC)c2-c2ccc(OC)c(=O)cc21 [demecolcine] | increased fluorescence | arrested in G2/M | brighter than the cells that had been arrested at G1/S | blocked in G2/M | relatively high green fluorescence |
| NC(Cn1ccc(=O)c(O)c1)C(=O)O (centres unmarked) [mimosine] | decreased fluorescence | partially blocked in G1/S; also recorded: arrested at the G1/S boundary | relatively low green fluorescence |  |  |
